{"source": "ChEMBL document CHEMBL1268839", "about": "“Small molecules targeting the interaction between HIV-1 integrase and LEDGF/p75 cofactor” (Bioorg Med Chem, 2010)", "key": {"[1]": {"experiment": "Inhibition of HIV1 His6-tagged integrase-recombinant flag-tagged LEDGF/p75 interaction at 100 uM after 1 hr by alphascreen assay"}, "[2]": {"experiment": "Inhibition of HIV-1 His6-tagged integrase-recombinant flag-tagged LEDGF/p75 interaction 1 hr by alphascreen assay"}, "[3]": {"experiment": "Selectivity ratio of compound IC50 to CHIBA-3003 IC50 for HIV-1 His6-tagged integrase-recombinant flag-tagged LEDGF/p75 interaction"}}, "data": [{"smiles": "Cc1ccccc1Cn1cc(C(=O)C2=C(O)C(=O)OC2)c2c(O)cccc21", "values": [{"measurement": "inhibition", "setting": "[1]", "result": 34, "unit": "%"}]}, {"smiles": "Cc1cccc(Cn2cc(C(=O)/C=C(\\O)C(=O)O)c3c(O)cccc32)c1C", "values": [{"measurement": "inhibition", "setting": "[1]", "result": 93, "unit": "%"}, {"measurement": "IC50", "setting": "[2]", "result": 28.5, "unit": "µM"}]}, {"smiles": "Cc1cccc(Cn2cc(C(=O)C3=C(O)C(=O)OC3)c3c(O)cccc32)c1C", "values": [{"measurement": "inhibition", "setting": "[1]", "result": 70, "unit": "%"}]}, {"smiles": "CCOC(=O)/C(O)=C/C(=O)c1cn(Cc2cccc(C)c2C)c2cccc(O)c12", "values": [{"measurement": "inhibition", "setting": "[1]", "result": 57, "unit": "%"}]}, {"smiles": "Cc1ccccc1Cn1cc(C(=O)/C=C(\\O)C(=O)O)c2c(O)cccc21", "values": [{"measurement": "inhibition", "setting": "[1]", "result": 20, "unit": "%"}]}, {"smiles": "Cc1ccc(C)c(Cn2cc(C(=O)/C=C(\\O)C(=O)O)c3c(O)cccc32)c1", "values": [{"measurement": "inhibition", "setting": "[1]", "result": 40, "unit": "%"}]}, {"smiles": "CCOC(=O)/C(O)=C/C(=O)c1cn(Cc2c(C)cccc2C)c2cccc(O)c12", "values": [{"measurement": "inhibition", "setting": "[1]", "result": 47, "unit": "%"}]}, {"smiles": "CCOC(=O)/C(O)=C/C(=O)c1cn(Cc2ccc(C)cc2)c2cccc(O)c12", "values": [{"measurement": "inhibition", "setting": "[1]", "result": 60, "unit": "%"}, {"measurement": "IC50", "setting": "[2]", "result": 171, "unit": "µM"}]}, {"smiles": "Cc1cccc(Cn2cc(C(=O)/C=C(\\O)C(=O)O)c3c(O)cccc32)c1", "values": [{"measurement": "inhibition", "setting": "[1]", "result": 16, "unit": "%"}]}, {"smiles": "Cc1ccc(Cn2cc(C(=O)C3=C(O)C(=O)OC3)c3c(O)cccc32)cc1", "values": [{"measurement": "inhibition", "setting": "[1]", "result": 81, "unit": "%"}, {"measurement": "IC50", "setting": "[2]", "result": 8.7, "unit": "µM"}]}, {"smiles": "CCOC(=O)/C(O)=C/C(=O)c1cn(Cc2cc(C)cc(C)c2)c2cccc(O)c12", "values": [{"measurement": "inhibition", "setting": "[1]", "result": 52, "unit": "%"}]}, {"smiles": "O=C(O)/C(O)=C/C(=O)c1cn(Cc2ccc(F)cc2)c2cccc(O)c12", "values": [{"measurement": "inhibition", "setting": "[1]", "result": 56, "unit": "%"}, {"measurement": "IC50", "setting": "[2]", "result": 76, "unit": "µM"}]}, {"smiles": "Cc1ccc(Cn2cc(C(=O)/C=C(\\O)C(=O)O)c3c(O)cccc32)cc1", "values": [{"measurement": "inhibition", "setting": "[1]", "result": 86, "unit": "%"}, {"measurement": "IC50", "setting": "[2]", "result": 68, "unit": "µM"}]}, {"smiles": "Cc1ccc(Cn2cc(C(=O)C3=C(O)C(=O)OC3)c3c(O)cccc32)c(C)c1", "values": [{"measurement": "inhibition", "setting": "[1]", "result": 96, "unit": "%"}, {"measurement": "IC50", "setting": "[2]", "result": 11.7, "unit": "µM"}]}, {"smiles": "Cc1cc(C)cc(Cn2cc(C(=O)/C=C(\\O)C(=O)O)c3c(O)cccc32)c1", "values": [{"measurement": "Ratio IC50", "setting": "[3]", "result": 10}, {"measurement": "inhibition", "setting": "[1]", "result": 94, "unit": "%"}, {"measurement": "IC50", "setting": "[2]", "result": 3.5, "unit": "µM"}]}, {"smiles": "CCOC(=O)/C(O)=C/C(=O)c1cn(Cc2ccc(C)cc2C)c2cccc(O)c12", "values": [{"measurement": "inhibition", "setting": "[1]", "result": 58, "unit": "%"}]}, {"smiles": "O=C(O)/C(O)=C/C(=O)c1c[nH]c2cccc(O)c12", "values": [{"measurement": "inhibition", "setting": "[1]", "result": 71, "unit": "%"}, {"measurement": "IC50", "setting": "[2]", "result": 35, "unit": "µM"}]}, {"smiles": "Cc1ccc(C)c(Cn2cc(C(=O)C3=C(O)C(=O)OC3)c3c(O)cccc32)c1", "values": [{"measurement": "inhibition", "setting": "[1]", "result": 38, "unit": "%"}]}, {"smiles": "Cc1cc(C)cc(Cn2cc(C(=O)C3=C(O)C(=O)OC3)c3c(O)cccc32)c1", "values": [{"measurement": "inhibition", "setting": "[1]", "result": 69, "unit": "%"}, {"measurement": "IC50", "setting": "[2]", "result": 123, "unit": "µM"}]}, {"smiles": "CCOC(=O)/C(O)=C/C(=O)c1cn(Cc2ccccc2C)c2cccc(O)c12", "values": [{"measurement": "inhibition", "setting": "[1]", "result": 24, "unit": "%"}]}, {"smiles": "Cc1cccc(C)c1Cn1cc(C(=O)C2=C(O)C(=O)OC2)c2c(O)cccc21", "values": [{"measurement": "inhibition", "setting": "[1]", "result": 70, "unit": "%"}, {"measurement": "IC50", "setting": "[2]", "result": 7.5, "unit": "µM"}]}, {"smiles": "Cc1cccc(C)c1Cn1cc(C(=O)/C=C(\\O)C(=O)O)c2c(O)cccc21", "values": [{"measurement": "inhibition", "setting": "[1]", "result": 72, "unit": "%"}]}, {"smiles": "CCOC(=O)/C(O)=C/C(=O)c1cn(Cc2cccc(C)c2)c2cccc(O)c12", "values": [{"measurement": "inhibition", "setting": "[1]", "result": 45, "unit": "%"}]}, {"smiles": "Cc1ccc(Cn2cc(C(=O)/C=C(\\O)C(=O)O)c3c(O)cccc32)c(C)c1", "values": [{"measurement": "inhibition", "setting": "[1]", "result": 55, "unit": "%"}]}, {"smiles": "CCOC(=O)/C(O)=C/C(=O)c1cn(Cc2cc(C)ccc2C)c2cccc(O)c12", "values": [{"measurement": "inhibition", "setting": "[1]", "result": 33, "unit": "%"}]}, {"smiles": "Cc1cccc(Cn2cc(C(=O)C3=C(O)C(=O)OC3)c3c(O)cccc32)c1", "values": [{"measurement": "inhibition", "setting": "[1]", "result": 61, "unit": "%"}, {"measurement": "IC50", "setting": "[2]", "result": 53.3, "unit": "µM"}]}]}
